Our source for the EC50 values is patent US12344610B2, “APOL1 inhibitors and methods of use” (Maze Therapeutics, Inc., priority 2022, dated 2025).

Common to all, as to format: cell-based
Experiment [1] has as its system Trypanosoma brucei Lister 427 VSG221 with APOL1 G1 recombinant protein. Briefly: APOL1 G1 trypanosome cell rescue assay (Example B5). To be noted: Trypanosoma brucei, 20 h, read-out: APOL1 G1 Trypanosome Rescue EC50, Trypanosoma brucei Lister 427 VSG221 with APOL1 G1 recombinant protein, 20 hours, CellTiter-Glo; geometric mean of at least 2 assay runs; † = single assay run. A digest of the protocol: (§1)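 Compounds in duplicate 2-fold, 11-point series with 0.4% DMSO final. Next, tag-free mature APOL1 variant protein went in from a 2 μg/mL solution, then trypanosomes to 250 per well. Plates incubated 20 h humidified at 37° C, equilibrated to room temperature, and CellTiter-Glo added for luminescence.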

The subject of experiment [2] is Trypanosoma brucei Lister 427 VSG221 with APOL1 G0 recombinant protein. Briefly: APOL1 G0 trypanosome cell rescue assay (Example B5). To be noted: Trypanosoma brucei, 20 h, read-out: APOL1 G0 Trypanosome Rescue EC50, Trypanosoma brucei Lister 427 VSG221 with APOL1 G0 recombinant protein, 20 hours, CellTiter-Glo; geometric mean of at least 2 assay runs; † = single assay run. In a few lines:
as §1
Background: In ATP-based viability assays light output follows the ATP content of the culture.

Experiment [3] concerns Trypanosoma brucei Lister 427 VSG221 with APOL1 G2 recombinant protein. Briefly: APOL1 G2 trypanosome cell rescue assay (Example B5). As to conditions: Trypanosoma brucei, 20 h, read-out: APOL1 G2 Trypanosome Rescue EC50, Trypanosoma brucei Lister 427 VSG221 with APOL1 G2 recombinant protein, 20 hours, CellTiter-Glo; geometric mean of at least 2 assay runs; † = single assay run. In a few lines:
as §1

The subject of experiment [4] is HEK293 clonal cell line overexpressing APOL1 G1. Put plainly: APOL1 G1 HEK293 cell rescue assay (Example B3). As to conditions: Homo sapiens, HEK293, HEK293 clonal line overexpressing APOL1 G1; geometric mean of at least 2 runs; † = single run; ¥ = concentration at 50% rescue estimated (no sigmoidal curve). A digest of the protocol:
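HEK293 clonal line overexpressing APOL1 G1; EC50 is half-maximal reversal of APOL1-induced cell death. Values are the geometric mean of ≥2 runs on separate days, each run the average of duplicate wells. Where no sigmoidal curve could be fitted, the concentration giving 50% rescue was estimated.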

For orientation: EC50 means the concentration needed to bring the measured effect to its halfway point. In the case of `CS(=O)(=O)c1ccc(OCCN2CCC3(CC2)C(=O)Nc2ccc(C#N)cc23)cc1C(F)(F)F` [Compound 107, 1′-{2-[4-methanesulfonyl-3-(trifluoromethyl)phenoxy]ethyl}-2-oxo-1,2-dihydrospiro[indole-3,4′-piperidine]-5-carbonitrile], the EC50 in experiment [1] is 93.5 nM; in experiment [2] it was 57.2 nM; in experiment [3] it was 23 nM; in experiment [4] it was 120 nM.

Turning to `CS(=O)(=O)c1ccc(OCCN2CCC3(CC2)C(=O)Nc2ccc(Cl)cc23)cc1C(F)(F)F` [Compound 108, 5-chloro-1′-{2-[4-methanesulfonyl-3-(trifluoromethyl)phenoxy]ethyl}-1,2-dihydrospiro[indole-3,4′-piperidin]-2-one], the EC50 was 30.7 nM in experiment [1], 23.3 nM in experiment [2], 9.22 nM in experiment [3] and 49.7 nM in experiment [4].

For `CS(=O)(=O)C1(c2ccc(OCCN3CCC4(CC3)C(=O)Nc3ccc(C#N)cc34)cc2)COC1` [Compound 109, 1′-{2-[4-(3-methanesulfonyloxetan-3-yl)phenoxy]ethyl}-2-oxo-1,2-dihydrospiro[indole-3,4′-piperidine]-5-carbonitrile], the EC50 in experiment [1] was 385 nM; in experiment [2], 320 nM; in experiment [3] it was 98 nM; in experiment [4], 321 nM.

As to `Cc1cc(OCCN2CCC3(CC2)C(=O)Nc2ccc(Cl)cc23)ccc1S(C)(=O)=O` [Compound 110, 5-chloro-1′-[2-(4-methanesulfonyl-3-methylphenoxy)ethyl]-1,2-dihydrospiro[indole-3,4′-piperidin]-2-one], the EC50 was 87.7 nM in experiment [1], 71.4 nM in experiment [2], 26.1 nM in experiment [3] and 100 nM in experiment [4].

With `Cc1cc(OCCN2CCC3(CC2)C(=O)Nc2ccc(C#N)cc23)ccc1S(C)(=O)=O` [Compound 111, 1′-[2-(4-methanesulfonyl-3-methylphenoxy)ethyl]-2-oxo-1,2-dihydrospiro[indole-3,4′-piperidine]-5-carbonitrile], the EC50 is 362 nM in experiment [1], 282 nM in experiment [2], 105 nM in experiment [3] and 246 nM in experiment [4].

For `O=C1Nc2ccc(Cl)cc2C12CCN(CCOc1ccc(S(=O)(=O)C(F)F)cc1)CC2` [Compound 112, 5-chloro-1′-[2-(4-difluoromethanesulfonylphenoxy)ethyl]-1,2-dihydrospiro[indole-3,4′-piperidin]-2-one], the EC50 in experiment [1] is 69.6 nM; in experiment [2] it was 58.2 nM; in experiment [3], 18.3 nM; in experiment [4], 77.5 nM.

In the case of `N#Cc1ccc2c(c1)C1(CCN(CCOc3ccc(S(=O)(=O)C(F)F)cc3)CC1)C(=O)N2` [Compound 113, 1′-[2-(4-difluoromethanesulfonylphenoxy)ethyl]-2-oxo-1,2-dihydrospiro[indole-3,4′-piperidine]-5-carbonitrile], the EC50 is 154 nM in experiment [1], 124 nM in experiment [2], 46.7 nM in experiment [3] and 176 nM in experiment [4].

In the case of `O=C1CCc2cc(OCCN3CCC4(CC3)C(=O)Nc3ccc(Cl)cc34)ccc2N1[C@H]1C[C@@H](O)C1` [Compound 114, 5-chloro-1′-[2-({2-oxo-1-[(cis)-3-hydroxycyclobutyl]-1,2,3,4-tetrahydroquinolin-6-yl}oxy)ethyl]-1,2-dihydrospiro[indole-3,4′-piperidin]-2-one], the EC50 in experiment [1] is 104 nM; in experiment [2] it was 108 nM; in experiment [3] it was 38 nM; in experiment [4], 128 nM.

For `CN(c1c(F)cc(OCCN2CCC3(CC2)C(=O)Nc2ccc(Cl)cc23)cc1F)S(C)(=O)=O` [Compound 127, N-[4-(2-{5-chloro-2-oxo-1,2-dihydrospiro[indole-3,4′-piperidin]-1′-yl}ethoxy)-2,6-difluorophenyl]-N-methylmethanesulfonamide], the EC50 in experiment [1] is 83.9 nM; in experiment [2], 64.9 nM; in experiment [3], 29.4 nM; in experiment [4], 61 nM.

Regarding `CN(c1c(F)cc(OCCN2CCC3(CC2)C(=O)Nc2ccc(C#N)cc23)cc1F)S(C)(=O)=O` [Compound 128, N-[4-(2-{5-cyano-2-oxo-1,2-dihydrospiro[indole-3,4′-piperidin]-1′-yl}ethoxy)-2,6-difluorophenyl]-N-methylmethanesulfonamide], the EC50 in experiment [1] is 383 nM; in experiment [2] it was 269 nM; in experiment [3], 133 nM; in experiment [4], 158 nM.

Turning to `Cc1cc(OCCN2CCC3(CC2)C(=O)Nc2ccc(Cl)cc23)cc(C)c1S(C)(=O)=O` [Compound 129, 5-chloro-1′-[2-(4-methanesulfonyl-3,5-dimethylphenoxy)ethyl]-1,2-dihydrospiro[indole-3,4′-piperidin]-2-one], the EC50 in experiment [1] is 69.5 nM; in experiment [2], 65.2 nM; in experiment [3] it was 22.2 nM; in experiment [4], 72.8 nM.

With `Cn1c(=O)oc2cc(OCCN3CCC4(CC3)C(=O)Nc3ccc(Cl)cc34)ccc21` [Compound 131, 5-chloro-1′-{2-[(3-methyl-2-oxo-2,3-dihydro-1,3-benzoxazol-6-yl)oxy]ethyl}-1,2-dihydrospiro[indole-3,4′-piperidin]-2-one], the EC50 in experiment [1] was 176 nM; in experiment [2], 132 nM; in experiment [3], 47.8 nM; in experiment [4], 186 nM.

As for `Cn1c(=O)oc2cc(OCCN3CCC4(CC3)C(=O)Nc3ccc(C#N)cc34)ccc21` [Compound 132, 1′-{2-[(3-methyl-2-oxo-2,3-dihydro-1,3-benzoxazol-6-yl)oxy]ethyl}-2-oxo-1,2-dihydrospiro[indole-3,4′-piperidine]-5-carbonitrile], the EC50 in experiment [1] is 731 nM; in experiment [2] it was 525 nM; in experiment [3], 180 nM; in experiment [4] it was 685 nM.

As to `CS(=O)(=O)C1(c2c(F)cc(OCCN3CCC4(CC3)C(=O)Nc3ccc(Cl)cc34)cc2F)COC1` [Compound 136, 5-chloro-1′-{2-[3,5-difluoro-4-(3-methanesulfonyloxetan-3-yl)phenoxy]ethyl}-1,2-dihydrospiro[indole-3,4′-piperidin]-2-one], the EC50 in experiment [1] was 37.1 nM; in experiment [2], 31.5 nM; in experiment [3], 14.3 nM; in experiment [4], 49.4 nM.

Turning to `CC(c1c(F)cc(OCCN2CCC3(CC2)C(=O)Nc2ccc(C#N)cc23)cc1F)S(C)(=O)=O` (centres unmarked) [Compound 137, 1′-{2-[3,5-difluoro-4-(1-methanesulfonylethyl)phenoxy]ethyl}-2-oxo-1,2-dihydrospiro[indole-3,4′-piperidine]-5-carbonitrile], the EC50 in experiment [1] was 454 nM; in experiment [2] it was 322 nM; in experiment [3] it was 119 nM; in experiment [4], 249 nM.

Take `Cc1cc(OCCN2CCC3(CC2)C(=O)Nc2ccc(C#N)cc23)cnc1S(C)(=O)=O` [Compound 140, 1′-{2-[(6-methanesulfonyl-5-methylpyridin-3-yl)oxy]ethyl}-2-oxo-1,2-dihydrospiro[indole-3,4′-piperidine]-5-carbonitrile]: the EC50 in experiment [1] was 653 nM; in experiment [2], 408 nM; in experiment [3] it was 164 nM; in experiment [4] it was 600 nM.

With `CC(C)N1C(=O)Cc2cc(OCCN3CCC4(CC3)C(=O)Nc3ccc(C#N)cc34)ccc21` [Compound 144, 2-oxo-1′-(2-{[2-oxo-1-(propan-2-yl)-2,3-dihydro-1H-indol-5-yl]oxy}ethyl)-1,2-dihydrospiro[indole-3,4′-piperidine]-5-carbonitrile], the EC50 in experiment [1] was 358 nM; in experiment [2], 224 nM; in experiment [3] it was 101 nM; in experiment [4] it was 246 nM.

For `CC(C)N1C(=O)Cc2cc(OCCN3CCC4(CC3)C(=O)Nc3ccc(Cl)cc34)ccc21` [Compound 145, 5-chloro-1′-(2-{[2-oxo-1-(propan-2-yl)-2,3-dihydro-1H-indol-5-yl]oxy}ethyl)-1,2-dihydrospiro[indole-3,4′-piperidin]-2-one], the EC50 in experiment [1] was 118 nM; in experiment [2] it was 86.5 nM; in experiment [3] it was 35.5 nM; in experiment [4] it was 98.5 nM.

As to `CN1Cc2cc(OCCN3CCC4(CC3)C(=O)Nc3ccc(Cl)cc34)ccc2C1=O` [Compound 146, 5-chloro-1′-{2-[(2-methyl-1-oxo-2,3-dihydro-1H-isoindol-5-yl)oxy]ethyl}-1,2-dihydrospiro[indole-3,4′-piperidin]-2-one], the EC50 was 427 nM in experiment [1], 346 nM in experiment [2], 119 nM in experiment [3] and 221 nM in experiment [4].

On to `CN=S(C)(=O)c1ccc(OCCN2CCC3(CC2)C(=O)Nc2ccc(Cl)cc23)cc1` (centres unmarked) [Compound 147, 5-chloro-1′-(2-{4-[methyl(methylimino)oxo-λ^6-sulfanyl]phenoxy}ethyl)-1,2-dihydrospiro[indole-3,4′-piperidin]-2-one], for which the EC50 in experiment [1] was 231 nM; in experiment [2], 155 nM; in experiment [3], 65.4 nM; in experiment [4] it was 183 nM.
